Results published in patent US7132431B2, “Anti-malarial compounds” (The University of Liverpool, priority 2001, dated 2006).
Read-outs that look alike come from different tables or passages of the source.

Columns and labels:
[1] = Biliary and urinary excretion and tissue distribution of radioactivity 5 h after i.v. [3H]AQ or [3H]ISQ; assay type: in vivo, Male Wistar rats; details: for % of dose accounted for (bile, tissues, plasma, urine): total recovery
Description: Investigation of Biliary and Urinary Excretion of [^3H] AQ and [^3H] ISQ After Administration to Male Wistar Rats. […] The rats were carefully monitored throughout the procedure to ensure that anaesthesia was maintained. A small incision was made in the throat and the trachea was located, via blunt dissection of the surrounding connective tissue. A 1.57 mm (I.D.) polythene tube cannula was inserted and securely fastened. […] A syringe containing saline was attached to the jugular cannula to act as a seal preventing air bubbles from entering the vein. An incision was made along the midline of the abdomen. The common bile duct was located and allowed to dilate before a 0.58 mm (I.D.) cannula was inserted. Control bile was obtained. The penis was ligated, to allow urine to be collected during the experiment. […] DMSO replaced the saline in the jugular cannula to prevent the drug precipitating out of solution during dosing. A 500 μl Hamilton syringe was filled with either [^3H]AQ or [^3H]ISQ (54 μmol/kg, 25 μCi/kg) and connected to the cannula. The radiolabelled compounds were infused via the jugular vein over a period of 30 mins to prevent respiratory depression caused by DMSO. Bile fractions were collected at hourly intervals for 5 h from the start of dosing, All samples were weighed and there weight recorded. After 5 h any remaining urine was aspirated from the bladder and blood was collected via cardiac puncture with a heparinised needle into a heparinised tube. […] Tissues (brain, heart, kidney, liver, lung, spleen and skin) were removed from the animal, rinsed in saline before being placed in vials and weighed. All samples were stored at −80° C. until they were required for analysis. […] Samples were left in darkness overnight to prevent chemiluminescence. Radioactivity was then determined using a Packard 1500 Liquid Scintillation Analyser. Portions of each tissue (50-100 mg) and aliquots of red blood cells (50-60 mg) were taken in duplicate; tissue solubilizer (0.5 ml) was added to each sample and left overnight at 50° C. The samples were cooled to room temperature before being decolourised with hydrogen peroxide (200 μl) and left for 1 h. The mixture was then neutralised with glacial acetic acid (30 μl) and 12 ml of scintillation fluid was added. The mixture was mixed thoroughly and left overnight in the dark. The samples were assayed for radioactivity. (all volumes of chemicals to be added were doubled for solubulizing the red blood cells)

[2] = 24 hour metabolism study, distribution of radioactivity; assay type: in vivo, Male Wistar rats
Experimental: [^3H]AQ (54 μmol/kg) was administered i.p to male Wistar rats (200-300 g). Each animal was placed in a wire-bottom metabolism cage with access to food and water. Urine was collected over 24 h, the cage was rinsed with distilled water (10 ml) at the end of the collection period. […] All samples were stored at −80° C. until analysed. Previous ISQ data was obtained for comparison with AQ. […] Samples were left in darkness overnight to prevent chemiluminescence. Radioactivity was then determined using a Packard 1500 Liquid Scintillation Analyser. Portions of each tissue (50-100 mg) and aliquots of red blood cells (50-60 mg) were taken in duplicate; tissue solubilizer (0.5 ml) was added to each sample and left overnight at 50° C. The samples were cooled to room temperature before being decolourised with hydrogen peroxide (200 μl) and left for 1 h. The mixture was then neutralised with glacial acetic acid (30 μl) and 12 ml of scintillation fluid was added. The mixture was mixed thoroughly and left overnight in the dark. The samples were assayed for radioactivity. (all volumes of chemicals to be added were doubled for solubulizing the red blood cells)

[3] = Radioactivity in plasma and red blood cells during 5 h after dosing; assay type: in vivo, Male Wistar rats; details: for average plasma level, % of the dose: throughout the 5 h experiment
Experimental: The animal was anaesthetised and the jugular vein cannulated as described above. To allow blood samples to be taken regularly, the carotid artery was cannulated with 0.58 mm I.D. polythene tubing. The cannula was attached to a heparinised saline syringe to prevent blood escaping from the cannula and to prevent air bubbles from entering the blood stream. The animals were dosed as described above and the clock was started at the end of the dosing period. Blood samples (300 μl) were collected at 15 mins, 30 mins and hourly post-dosing. Heparinised saline was flushed through the cannula after every blood collection to prevent clotting within the tubing. The saline was allowed to drain out of the cannula prior to every collection point. After the fifth hour sample had been collected, all remaining blood within the rat was allowed to drain from the cannula into a heparinised tube. All samples were […] (4000 rpm for 5 min) immediately after collection and the pellet and supernatant were separated. The volume of the plasma was recorded. The tissues were also removed and weighed all samples were stored at -80° C. until analysed. The active components of the plasma were removed via extraction with ether for LC/MS analysis. […] Samples were left in darkness overnight to prevent chemiluminescence. Radioactivity was then determined using a Packard 1500 Liquid Scintillation Analyser. Portions of each tissue (50-100 mg) and aliquots of red blood cells (50-60 mg) were taken in duplicate; tissue solubilizer (0.5 ml) was added to each sample and left overnight at 50° C. The samples were cooled to room temperature before being decolourised with hydrogen peroxide (200 μl) and left for 1 h. The mixture was then neutralised with glacial acetic acid (30 μl) and 12 ml of scintillation fluid was added. The mixture was mixed thoroughly and left overnight in the dark. The samples were assayed for radioactivity. (all volumes of chemicals to be added were doubled for solubulizing the red blood cells)

[4] = system: HB3 strain of P. falciparum (chloroquine sensitive); assay: In vitro antimalarial activity, 48-h [3H]-hypoxanthine incorporation assay, HB3 strain; assay type: cell-based; details: Plasmodium falciparum; chloroquine sensitive HB3 isolate, n=4
Experimental: (§1) Antimalarial activity. Two strains of P. falciparum were used in this study: (a) The K1 strain which is known to be CQ resistant and (b) the HB3 strain which is sensitive to all antimalarials. Parasites were maintained in continuous culture using the method of Jensen and Trager. (J. Parasitol., 1977, 63, 883-886) Cultures were grown in flasks containing human erythrocytes (2-5%) with parasitemia in the range of 1% to 10% suspended in RPMI 1640 medium supplemented with 25 mM HEPES and 32 mM NaHCO3, and 10% human serum (complete medium). Cultures were gassed with a mixture of 3% O2, 4% CO2 and 93% N2. Antimalarial activity was assessed with an adaption of the 48-h sensitivity assay of Desjardins et al. (Antimicrob. Agents. Chemother., 1979, 16, 710-718.) using [^3H]-hypoxanthine incorporation as an assessment of parasite growth. Stock drug solutions were prepared in 100% dimethylsulphoxide (DMSO) and diluted to the appropriate concentration using complete medium. […] Cultures were incubated for a further 24 h before they were harvested onto filter-mats, dried for 1 h at 55° C. and counted using a Wallac 1450 Microbeta Trilux Liquid scintillation and luminescence counter. IC50 values were calculated by interpolation of the probit transformation of the log dose—response curve. […]

[5] = LC/MS and radiochromatographic analysis of urinary, biliary and plasma metabolites; assay type: in vivo, Male Wistar rats; details: for biliary metabolite identified (main) / glutathione (GSH) conjugates or metabolites found: rat bile; for biliary metabolite identified (main): i.v.; for glutathione (GSH) conjugates or metabolites found: urine or blood; for main compound or metabolite in plasma: rat plasma ether extracts
Experimental: After the fifth hour sample had been collected, all remaining blood within the rat was allowed to drain from the cannula into a heparinised tube. All samples were centrifiged (4000 rpm for 5 min) immediately after collection and the pellet and supernatant were separated. The volume of the plasma was recorded. The tissues were also removed and weighed all samples were stored at −80° C. until analysed. The active components of the plasma were removed via extraction with ether for LC/MS analysis.
Analysis of Urinary, Binary and Plasma Metabolites of Male Wistar Rats Dosed with [3H]AQ or [^3H]ISQ.
Our samples were analysed using MassLynx software. Aliquots (50-100 μl) of bile, urine and plasma ether extracts, were eluted from a Zorbax SB-18 column with a slow acetonitrile gradient (10-50% over 30 mins) in ammonium acetate (5.0 mM, pH3.8) at 0.9 ml/min. Two Jasco PU-980 pumps were linked to a mixing module, allowing effluent to mix with scintillation fluid prior to reaching the Flo-One A250 _eta radioactive flow detector or allowing the effluent to be delivered to the Quattro II mass spectrometer. Nebulising and drying gas were delivered at a rate of 13 L/h and 300 L/h respectively. The temperature of the LC/MS interface was 70° C. and the capillary voltage was […]. The extent of fragmentation was modulated via altering the cone voltage.

[6] = system: K1 strain of P. falciparum (chloroquine resistant); assay: In vitro antimalarial activity, 48-h [3H]-hypoxanthine incorporation assay, K1 strain; assay type: cell-based, Plasmodium falciparum
Experimental: Antimalarial activity. Two strains of P. falciparum were used in this study: (a) The K1 strain which is known to be CQ resistant and (b) the HB3 strain which is sensitive to all antimalarials. Parasites were maintained in continuous culture using the method of Jensen and Trager. (J. Parasitol., 1977, 63, 883-886) Cultures were grown in flasks containing human erythrocytes (2-5%) with parasitemia in the range of 1% to 10% suspended in RPMI 1640 medium supplemented with 25 mM HEPES and 32 mM NaHCO3, and 10% human serum (complete medium). Cultures were gassed with a mixture of 3% O2, 4% CO2 and 93% N2. Antimalarial activity was assessed with an adaption of the 48-h sensitivity assay of Desjardins et al. (Antimicrob. Agents. Chemother., 1979, 16, 710-718.) using [^3H]-hypoxanthine incorporation as an assessment of parasite growth. Stock drug solutions were prepared in 100% dimethylsulphoxide (DMSO) and diluted to the appropriate concentration using complete medium. Assays were performed in sterile 96-well microtitre plates, each plate contained 200—1 of parasite culture (2% parasitemia, 0.5% haematocrit) with or without 10—1 drug dilutions. Each drug was tested in triplicate and parasite growth compared to control wells (which consituted 100% parasite growth). After 24-h incubation at 37° C., 0.5_Ci hypoxanthine was added to each well. Cultures were incubated for a further 24 h before they were harvested onto filter-mats, dried for 1 h at 55° C. and counted using a Wallac 1450 Microbeta Trilux Liquid scintillation and luminescence counter. IC50 values were calculated by interpolation of the probit transformation of the log dose—response curve. In Vivo Testing Protocol Male, random Swiss albino mice weighing 18-22 g were inoculated intraperitoneally with 10^7 parasitised erythrocytes with P. yoelii NS strain. Animals were then dosed daily via two routes (intraparential or oral) for four consecutative days beginning on the day of infection. Compounds were dissolved or suspended in the vechile solution consisting of methanol, phosphate buffered saline and DMSO (2:5:3 v/v).

P. yoelii NS strain = assay: In vivo 4-day test, P. yoelii NS rodent malaria model; parameters: species or system P. yoelii (Swiss albino mice); details: oral administration, standard 4-day test, repeated twice
Experimental: as §1

P. bergheri = assay: In vivo activity in the mouse model against P. bergheri; details: in words
[7] = 5 h after i.v. 54 μmol/kg, mean±s.e.m.
[8] = male, Wistar, rat, in vivo, iv, 5 h
[9] = male, Wistar, rat, in vivo, 24 h
[10] = Plasmodium falciparum, chloroquine resistant K1 isolate, n=4, read-out: IC50
[11] = Table 2, chloroquine resistant K1 Plasmodium falciparum, read-out: IC50

CCN(CC)Cc1cc(Nc2ccnc3cc(Cl)ccc23)ccc1O [amodiaquine, reference compound]
% of dose recovered in skin [1, 7]: 22.12% | % of dose accounted for (bile, tissues, plasma, urine) ([1]; after 5 h): 78.56% | % of dose remaining in heart [1, 8]: 0.34% | % of dose remaining in liver [1, 8]: 20.82% | % of dose remaining in plasma [1, 8]: 0.04% | % of dose removed from liver ([2]; male, Wistar, rat, in vivo): 13.97% | % of dose remaining in liver [2, 9]: 6.85% | % of dose remaining in plasma [2, 9]: 0.02% | % of dose remaining in skin [2, 9]: 7.18% | % of dose in red blood cells after 5 h ([3]; after 5 h): 0.09% | % of dose in red blood cells, initially ([3]; start of 5 h period): 0.12% | average plasma level, % of the dose [3]: approximately 0.034% | IC50 [4]: 18 nM | biliary metabolite identified (main) ([5]; LC/MS): a glutathione conjugate of AQ | glutathione (GSH) conjugates or metabolites found ([5]; LC/MS): glutathione metabolites were observed | main compound or metabolite in plasma ([5]; LC/MS): desethylAQ | IC50 [6, 10]: 25 nM | ED50 (P. yoelii NS strain; Plasmodium yoelii, in Mus musculus, po, 96 h, read-out: ED50): 7.9 mg/kg | ED50 (P. yoelii NS strain): 7.4 mg/kg

CCNCc1ccc(Nc2ccnc3c2=CCC(Cl)C=3)cc1O (stereo not drawn) [ISQ1]
IC50 [6, 11]: 16.5 nM

CCCN(CCC)Cc1ccc(Nc2ccnc3c2=CCC(Cl)C=3)cc1O (stereo not drawn) [ISQ3]
IC50 [6, 11]: 23.8 nM

CCCCN(CCCC)Cc1ccc(Nc2ccnc3c2=CCC(Cl)C=3)cc1O (stereo not drawn) [ISQ4]
IC50 [6, 11]: 14.9 nM

CC(C)NCc1ccc(Nc2ccnc3c2=CCC(Cl)C=3)cc1O (stereo not drawn) [ISQ5]
IC50 [6, 11]: 22.7 nM

CCN(CC)CCCC(C)Nc1ccnc2cc(Cl)ccc12 (stereo not drawn) [Chloroquine, chloroquine, reference compound]
IC50 ([6]; Plasmodium falciparum, K1, read-out: IC50 nM): 190 to 250 nM

CCN(CC)Cc1ccc(Nc2ccnc3cc(Cl)ccc23)cc1O [Isoquine, 4-N-(3′-hydroxy-4′-[N,N-diethylaminomethyl])anilino-7-chloroquinoline]
% of dose excreted into bile [1, 7]: 12.73% | % of dose recovered in skin [1, 7]: 21.46% | % of dose remaining in heart [1, 7]: 0.58% | % of dose remaining in liver [1, 7]: 32.93% | % of dose remaining in plasma [1, 7]: 0.13% | increase in liver accumulation compared with AQ ([1]; after 5 h): approximately 10% | % of dose in tissues ([1]; after 5 h, all tissues): 70.92% | % of dose accounted for (bile, tissues, plasma, urine) ([1]; after 5 h): 87.17% | % of dose excreted into urine ([1]; over 5 h after i.v. 54 μmol/kg, mean±s.e.m.): 3.39% | % of dose remaining in liver ([2]; after 24 h): 5.48% | % of dose remaining in skin ([2]; after 24 h): 5.6% | % of dose remaining in the tissues ([2]; after 24 h, 54 μmol/kg): 13.87% | % of dose in remaining tissues ([2]; after 24 h, tissues other than liver and skin): 2.97% | % of dose removed from liver ([2]; difference between 5 h and 24 h): 27.45% | plasma levels relative to AQ ([3]; over 5 h): 3 fold | average plasma level, % of the dose [3]: 0.095% | % of dose in red blood cells, constant level ([3]; throughout the experiment): 0.12% | IC50 [4]: 9 nM | formation of toxic or reactive metabolites ([5]; in vivo, in words): does not form toxic metabolites | biliary metabolite identified (main) ([5]; LC/MS): isoquine aldehyde glucuronide metabolite | glutathione (GSH) conjugates or metabolites found ([5]; LC/MS): complete lack of glutathione metabolites | main compound or metabolite in plasma ([5]; LC/MS): parent compound | main compound excreted in urine ([5]; rat urine, LC/MS): parent compound isoquine | IC50 [6, 10]: 6 nM | IC50 [6, 11]: 15.7 nM | in vivo activity against P. bergheri (P. bergheri): superior in vivo activity

CN(C)Cc1ccc(Nc2ccnc3c2=CCC(Cl)C=3)cc1O (stereo not drawn) [ISQ2]
IC50 [6, 11]: 25.2 nM
